US7709636B2, “Pyrazole sulfonylurea compound and herbicide” (Nissan Chemical Industries, Ltd., priority 2004, dated 2010)

How the values were obtained:
direct sown rice [1] = assay: Herbicidal effect test by foliage treatment; assay type: in vivo, Oryza sativa; details: 1.6 g/a; foliage treatment after growth of 14 days; 3 weeks after treatment
How it was run: (§1)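 Greenhouse-grown plants (25–30 °C) sprayed on foliage 14 days after sowing with water-diluted wettable powder at set formulation rates. Herbicidal effect scored visually 3 weeks after treatment on a graded scale.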

Polygonum blumei [2] = assay: Herbicidal effect test by foliage treatment; assay type: in vivo; details: 1.6 g/a; foliage treatment after growth of 14 days; 3 weeks after treatment
How it was run: as §1

Chenopodium album [3] = assay: Herbicidal effect test by foliage treatment; assay type: in vivo; details: 1.6 g/a; foliage treatment after growth of 14 days; 3 weeks after treatment
How it was run: as §1

Stellaria media [4] = assay: Herbicidal effect test by foliage treatment; assay type: in vivo; details: 1.6 g/a; foliage treatment after growth of 14 days; 3 weeks after treatment
How it was run: as §1

soybean (Glycine max) [5] = assay: Herbicidal effect test by foliage treatment; assay type: in vivo; details: 1.6 g/a; foliage treatment after growth of 14 days; 3 weeks after treatment
How it was run: as §1

Black-grass [6] = assay: Herbicidal effect test by foliage treatment; assay type: in vivo; details: 1.6 g/a; foliage treatment after growth of 14 days; 3 weeks after treatment
How it was run: as §1

Digitaria adscendes [7] = assay: Herbicidal effect test by foliage treatment; assay type: in vivo; details: 1.6 g/a; foliage treatment after growth of 14 days; 3 weeks after treatment
How it was run: as §1

corn (Zea mays) [8] = assay: Herbicidal effect test by foliage treatment; assay type: in vivo; details: 1.6 g/a; foliage treatment after growth of 14 days; 3 weeks after treatment
How it was run: as §1

Amaranthus retroflexus [9] = assay: Herbicidal effect test by foliage treatment; assay type: in vivo; details: 1.6 g/a; foliage treatment after growth of 14 days; 3 weeks after treatment
How it was run: as §1

Echinochloa crus-galli [10] = assay: Herbicidal effect test by foliage treatment; assay type: in vivo; details: 1.6 g/a; foliage treatment after growth of 14 days; 3 weeks after treatment
How it was run: as §1

Abutilon avicennae [11] = assay: Herbicidal effect test by foliage treatment; assay type: in vivo; details: 1.6 g/a; foliage treatment after growth of 14 days; 3 weeks after treatment
How it was run: as §1

Beta vulgaris (beet) [12] = assay: Herbicidal effect test by foliage treatment; assay type: in vivo; details: 1.6 g/a; foliage treatment after growth of 14 days; 3 weeks after treatment
How it was run: as §1

Setaria viridis [13] = assay: Herbicidal effect test by foliage treatment; assay type: in vivo; details: 1.6 g/a; foliage treatment after growth of 14 days; 3 weeks after treatment
How it was run: as §1

Ambrosia elatior [14] = assay: Herbicidal effect test by foliage treatment; assay type: in vivo; details: 1.6 g/a; foliage treatment after growth of 14 days; 3 weeks after treatment
How it was run: as §1

[15] = tested on: Triticum aestivum (wheat); assay: Herbicidal effect test by foliage treatment; assay type: in vivo; details: 1.6 g/a; foliage treatment after growth of 14 days; 3 weeks after treatment
How it was run: as §1

Avena fatua [16] = assay: Herbicidal effect test by foliage treatment; assay type: in vivo; details: 1.6 g/a; foliage treatment after growth of 14 days; 3 weeks after treatment
How it was run: as §1

Scirpus juncoides = assay: Herbicidal effect test in submerged condition by treatment during weed-growth stage (1); assay type: in vivo; details: 0.64 g/a, treated at 1st to 2nd leaf stage, 3 weeks after treatment
How it was run: (§2)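 Paddy-soil pots flooded to 4 cm water depth were sown and grown in a greenhouse at 25 to 30° C until weeds reached 1st to 2nd leaf stage. A wettable powder diluted in water to a predetermined formulation amount was applied to the water surface. Herbicidal effect was scored 3 weeks after treatment against set criteria.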

Echinochloa crus-galli [17] = assay: as above; assay type: in vivo; details: 0.64 g/a, treated at 1st to 2nd leaf stage, 3 weeks after treatment
How it was run: as §2

Monochoria vaginalis = assay: as above; assay type: in vivo; details: 0.64 g/a, treated at 1st to 2nd leaf stage, 3 weeks after treatment
How it was run: as §2

direct sown rice [18] = assay: Herbicidal effect test by soil treatment; assay type: in vivo, Oryza sativa; details: 1.6 g/a, 3 weeks after treatment
How it was run: (§3)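 Seeds were sown in sterilized diluvial soil under about 1.5 cm cover, then the soil surface was sprayed uniformly with a water-diluted wettable powder at a predetermined formulation amount. Herbicidal effect was scored per species 3 weeks after treatment.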

Polygonum blumei [19] = assay: Herbicidal effect test by soil treatment; assay type: in vivo; details: 1.6 g/a, 3 weeks after treatment
How it was run: as §3

Chenopodium album [20] = assay: Herbicidal effect test by soil treatment; assay type: in vivo; details: 1.6 g/a, 3 weeks after treatment
How it was run: as §3

Stellaria media [21] = assay: Herbicidal effect test by soil treatment; assay type: in vivo; details: 1.6 g/a, 3 weeks after treatment
How it was run: as §3

soybean (Glycine max) [22] = assay: Herbicidal effect test by soil treatment; assay type: in vivo; details: 1.6 g/a, 3 weeks after treatment
How it was run: as §3

Black-grass [23] = assay: Herbicidal effect test by soil treatment; assay type: in vivo; details: 1.6 g/a, 3 weeks after treatment
How it was run: as §3

Digitaria adscendes [24] = assay: Herbicidal effect test by soil treatment; assay type: in vivo; details: 1.6 g/a, 3 weeks after treatment
How it was run: as §3

corn (Zea mays) [25] = assay: Herbicidal effect test by soil treatment; assay type: in vivo; details: 1.6 g/a, 3 weeks after treatment
How it was run: as §3

Amaranthus retroflexus [26] = assay: Herbicidal effect test by soil treatment; assay type: in vivo; details: 1.6 g/a, 3 weeks after treatment
How it was run: as §3

Echinochloa crus-galli [27] = assay: Herbicidal effect test by soil treatment; assay type: in vivo; details: 1.6 g/a, 3 weeks after treatment
How it was run: as §3

Abutilon avicennae [28] = assay: Herbicidal effect test by soil treatment; assay type: in vivo; details: 1.6 g/a, 3 weeks after treatment
How it was run: as §3

Beta vulgaris (beet) [29] = assay: Herbicidal effect test by soil treatment; assay type: in vivo; details: 1.6 g/a, 3 weeks after treatment
How it was run: as §3

Setaria viridis [30] = assay: Herbicidal effect test by soil treatment; assay type: in vivo; details: 1.6 g/a, 3 weeks after treatment
How it was run: as §3

Ambrosia elatior [31] = assay: Herbicidal effect test by soil treatment; assay type: in vivo; details: 1.6 g/a, 3 weeks after treatment
How it was run: as §3

[32] = tested on: Triticum aestivum (wheat); assay: Herbicidal effect test by soil treatment; assay type: in vivo; details: 1.6 g/a, 3 weeks after treatment
How it was run: as §3

Avena fatua [33] = assay: Herbicidal effect test by soil treatment; assay type: in vivo; details: 1.6 g/a, 3 weeks after treatment
How it was run: as §3

COc1cc(OC)nc(NC(=O)NS(=O)(=O)c2c(C3=NOCC(C)(CI)O3)c(Cl)nn2C)n1 (centres unmarked) [Compound 4, N-((4,6-dimethoxypyrimidin-2-yl)aminocarbonyl)-3-chloro-4-(5-iodomethyl-5-methyl-5H,6H-1,4,2-dioxadin-3-yl)-1-methylpyrazole-5-sulfonamide]
herbicidal effect, d: direct sown rice (direct sown rice [1]): 0 (Herbicidal rate 5% or less (little effect))
herbicidal effect, L: Polygonum blumei (Polygonum blumei [2]): 3 (Herbicidal rate 40% or more and less than 70%)
herbicidal effect, K: Chenopodium album (Chenopodium album [3]): 4 (Herbicidal rate 70% or more and less than 90%)
herbicidal effect, M: Stellaria media (Stellaria media [4]): 2 (Herbicidal rate 20% or more and less than 40%)
herbicidal effect, c: soybean (Glycine max) (soybean (Glycine max) [5]): 3 (Herbicidal rate 40% or more and less than 70%)
herbicidal effect, G: Black-grass (Black-grass [6]): 0 (Herbicidal rate 5% or less (little effect))
herbicidal effect, D: Digitaria adscendes (Digitaria adscendes [7]): 0 (Herbicidal rate 5% or less (little effect))
herbicidal effect, b: corn (Zea mays) (corn (Zea mays) [8]): 0 (Herbicidal rate 5% or less (little effect))
herbicidal effect, J: Amaranthus retroflexus (Amaranthus retroflexus [9]): 2 (Herbicidal rate 20% or more and less than 40%)
herbicidal effect, A: Echinochloa crus-galli (Echinochloa crus-galli [10]): 0 (Herbicidal rate 5% or less (little effect))
herbicidal effect, H: Abutilon avicennae (Abutilon avicennae [11]): 4 (Herbicidal rate 70% or more and less than 90%)
herbicidal effect, f: Beta vulgaris (beet) (Beta vulgaris (beet) [12]): 1 (Herbicidal rate 5% or more and less than 20%)
herbicidal effect, E: Setaria viridis (Setaria viridis [13]): 0 (Herbicidal rate 5% or less (little effect))
herbicidal effect, I: Ambrosia elatior (Ambrosia elatior [14]): 3 (Herbicidal rate 40% or more and less than 70%)
herbicidal effect, e: Triticum aestivum (wheat) [15]: 0 (Herbicidal rate 5% or less (little effect))
herbicidal effect, F: Avena fatua (Avena fatua [16]): 0 (Herbicidal rate 5% or less (little effect))
herbicidal effect, B: Scirpus juncoides (Scirpus juncoides): 3 (Herbicidal rate 40% or more and less than 70%)
herbicidal effect, A: Echinochloa crus-galli (Echinochloa crus-galli [17]): 0 (Herbicidal rate 5% or less (little effect))
herbicidal effect, C: Monochoria vaginalis (Monochoria vaginalis): 3 (Herbicidal rate 40% or more and less than 70%)
herbicidal effect, d: direct sown rice (direct sown rice [18]): 0 (Herbicidal rate 5% or less (little effect))
herbicidal effect, L: Polygonum blumei (Polygonum blumei [19]): 0 (Herbicidal rate 5% or less (little effect))
herbicidal effect, K: Chenopodium album (Chenopodium album [20]): 1 (Herbicidal rate 5% or more and less than 20%)
herbicidal effect, M: Stellaria media (Stellaria media [21]): 1 (Herbicidal rate 5% or more and less than 20%)
herbicidal effect, c: soybean (Glycine max) (soybean (Glycine max) [22]): 0 (Herbicidal rate 5% or less (little effect))
herbicidal effect, G: Black-grass (Black-grass [23]): 0 (Herbicidal rate 5% or less (little effect))
herbicidal effect, D: Digitaria adscendes (Digitaria adscendes [24]): 0 (Herbicidal rate 5% or less (little effect))
herbicidal effect, b: corn (Zea mays) (corn (Zea mays) [25]): 0 (Herbicidal rate 5% or less (little effect))
herbicidal effect, J: Amaranthus retroflexus (Amaranthus retroflexus [26]): 0 (Herbicidal rate 5% or less (little effect))
herbicidal effect, A: Echinochloa crus-galli (Echinochloa crus-galli [27]): 0 (Herbicidal rate 5% or less (little effect))
herbicidal effect, H: Abutilon avicennae (Abutilon avicennae [28]): 0 (Herbicidal rate 5% or less (little effect))
herbicidal effect, f: Beta vulgaris (beet) (Beta vulgaris (beet) [29]): 0 (Herbicidal rate 5% or less (little effect))
herbicidal effect, E: Setaria viridis (Setaria viridis [30]): 0 (Herbicidal rate 5% or less (little effect))
herbicidal effect, I: Ambrosia elatior (Ambrosia elatior [31]): 2 (Herbicidal rate 20% or more and less than 40%)
herbicidal effect, e: Triticum aestivum (wheat) [32]: 0 (Herbicidal rate 5% or less (little effect))
herbicidal effect, F: Avena fatua (Avena fatua [33]): 0 (Herbicidal rate 5% or less (little effect))
